Assay results taken from ChEMBL document CHEMBL1671858, “Coprevalence of plasmid-mediated quinolone resistance determinants QepA, Qnr, and AAC(6')-Ib-cr among 16S rRNA methylase RmtB-producing Escherichia coli isolates from pigs” (2008).

How the values were obtained:
Format in all cases: functional
Escherichia coli [1] = test: Antimicrobial activity against Escherichia coli isolate GZ3 transconjugant harboring 16S rRNA methylase RmtB and qepA by agar dilution method relative to recipient strain
Escherichia coli [2] = test: Antimicrobial activity against Escherichia coli isolate GZ4 transconjugant harboring 16S rRNA methylase RmtB and qepA by agar dilution method relative to recipient strain
Escherichia coli [3] = test: Antimicrobial activity against Escherichia coli isolate GZ5 transconjugant harboring 16S rRNA methylase RmtB and qepA by agar dilution method relative to recipient strain
Escherichia coli [4] = test: Antimicrobial activity against Escherichia coli isolate GZ6 transconjugant harboring 16S rRNA methylase RmtB and qepA by agar dilution method relative to recipient strain
Escherichia coli [5] = test: Antimicrobial activity against Escherichia coli isolate GZ8 transconjugant harboring 16S rRNA methylase RmtB and qepA by agar dilution method relative to recipient strain
Escherichia coli [6] = test: Antimicrobial activity against Escherichia coli isolate GZ9 transconjugant harboring 16S rRNA methylase RmtB and qepA by agar dilution method relative to recipient strain
Escherichia coli [7] = test: Antimicrobial activity against Escherichia coli isolate GZ11 transconjugant harboring 16S rRNA methylase RmtB and qepA by agar dilution method relative to recipient strain
Escherichia coli [8] = test: Antimicrobial activity against Escherichia coli isolate GZ12 transconjugant harboring 16S rRNA methylase RmtB and qepA by agar dilution method relative to recipient strain
Escherichia coli [9] = test: Antimicrobial activity against Escherichia coli isolate GZ13 transconjugant harboring 16S rRNA methylase RmtB and qepA by agar dilution method relative to recipient strain
Escherichia coli [10] = test: Antimicrobial activity against Escherichia coli isolate GZ14 transconjugant harboring 16S rRNA methylase RmtB and qepA by agar dilution method relative to recipient strain
Escherichia coli [11] = test: Antimicrobial activity against Escherichia coli isolate GZ15 transconjugant harboring 16S rRNA methylase RmtB and qepA by agar dilution method relative to recipient strain
Escherichia coli [12] = test: Antimicrobial activity against Escherichia coli isolate GZ16 transconjugant harboring 16S rRNA methylase RmtB and qepA by agar dilution method relative to recipient strain
Escherichia coli [13] = test: Antimicrobial activity against Escherichia coli isolate CQ15 transconjugant harboring 16S rRNA methylase RmtB and qepA by agar dilution method relative to recipient strain
Escherichia coli [14] = test: Antimicrobial activity against Escherichia coli isolate CQ18 transconjugant harboring 16S rRNA methylase RmtB and qepA by agar dilution method relative to recipient strain
Escherichia coli [15] = test: Antimicrobial activity against Escherichia coli isolate CQ2 transconjugant harboring 16S rRNA methylase RmtB and qepA by agar dilution method relative to recipient strain
Escherichia coli [16] = test: Antimicrobial activity against Escherichia coli isolate CQ5 transconjugant harboring 16S rRNA methylase RmtB and qepA by agar dilution method relative to recipient strain
Escherichia coli [17] = test: Antimicrobial activity against Escherichia coli isolate CQ4 transconjugant harboring 16S rRNA methylase RmtB and qepA by agar dilution method relative to recipient strain
Escherichia coli [18] = test: Antimicrobial activity against Escherichia coli isolate CQ20 transconjugant harboring 16S rRNA methylase RmtB and qepA by agar dilution method relative to recipient strain
Escherichia coli [19] = test: Antimicrobial activity against Escherichia coli isolate CQ26 transconjugant harboring 16S rRNA methylase RmtB and qepA by agar dilution method relative to recipient strain
Escherichia coli [20] = test: Antimicrobial activity against Escherichia coli isolate CQ10 transconjugant harboring 16S rRNA methylase RmtB and qepA by agar dilution method relative to recipient strain
Escherichia coli [21] = test: Antimicrobial activity against Escherichia coli isolate CQ14 transconjugant harboring 16S rRNA methylase RmtB and qepA by agar dilution method relative to recipient strain
Escherichia coli [22] = test: Antimicrobial activity against Escherichia coli isolate GZ7 transconjugant harboring 16S rRNA methylase RmtB and qepA and qnrS1 by agar dilution method relative to recipient strain
Escherichia coli [23] = test: Antimicrobial activity against Escherichia coli isolate GZ1 transconjugant harboring 16S rRNA methylase RmtB and qnrS1 by agar dilution method relative to recipient strain
Escherichia coli [24] = test: Antimicrobial activity against Escherichia coli isolate GZ2 transconjugant harboring 16S rRNA methylase RmtB and qnrS1 by agar dilution method relative to recipient strain
Escherichia coli [25] = test: Antimicrobial activity against Escherichia coli isolate CQ22 transconjugant harboring 16S rRNA methylase RmtB and qnrS1 by agar dilution method relative to recipient strain
Escherichia coli [26] = test: Antimicrobial activity against Escherichia coli isolate CQ13 transconjugant harboring 16S rRNA methylase RmtB and qnrS1 by agar dilution method relative to recipient strain
Escherichia coli [27] = test: Antimicrobial activity against Escherichia coli isolate CQ6 transconjugant harboring 16S rRNA methylase RmtB and qepA, qnrS2, aac(6')-Ib-cr gene by agar dilution method relative to recipient strain
Escherichia coli [28] = test: Antimicrobial activity against Escherichia coli isolate CQ7 transconjugant harboring 16S rRNA methylase RmtB and qepA, qnrS2, aac(6')-Ib-cr gene by agar dilution method relative to recipient strain
Escherichia coli [29] = test: Antimicrobial activity against Escherichia coli isolate CQ12 transconjugant harboring 16S rRNA methylase RmtB and qepA, qnrS2, aac(6')-Ib-cr gene by agar dilution method relative to recipient strain
Escherichia coli [30] = test: Antimicrobial activity against Escherichia coli isolate CQ16 transconjugant harboring 16S rRNA methylase RmtB and qepA, qnrS2, aac(6')-Ib-cr gene by agar dilution method relative to recipient strain
Escherichia coli [31] = test: Antimicrobial activity against Escherichia coli isolate GZ10 transconjugant harboring 16S rRNA methylase RmtB and qepA, aac(6')-Ib-cr gene by agar dilution method relative to recipient strain
Escherichia coli [32] = test: Antimicrobial activity against Escherichia coli isolate CQ19 transconjugant harboring 16S rRNA methylase RmtB and qepA, aac(6')-Ib-cr gene by agar dilution method relative to recipient strain
Escherichia coli [33] = test: Antimicrobial activity against Escherichia coli isolate CQ1 transconjugant harboring 16S rRNA methylase RmtB and qnrB6 by agar dilution method relative to recipient strain

Compound: CCn1cc(C(=O)O)c(=O)c2ccc(C)nc21 [NALIDIXIC ACID]
- fold change (FC) (Escherichia coli [1]): 8
- fold change (FC) (Escherichia coli [2]): 2
- fold change (FC) (Escherichia coli [3]): 1
- fold change (FC) (Escherichia coli [4]): 1
- fold change (FC) (Escherichia coli [5]): 4
- fold change (FC) (Escherichia coli [6]): 4
- fold change (FC) (Escherichia coli [7]): 2
- fold change (FC) (Escherichia coli [8]): 1
- fold change (FC) (Escherichia coli [9]): 4
- fold change (FC) (Escherichia coli [10]): 1
- fold change (FC) (Escherichia coli [11]): 1
- fold change (FC) (Escherichia coli [12]): 2
- fold change (FC) (Escherichia coli [13]): 1
- fold change (FC) (Escherichia coli [14]): 1
- fold change (FC) (Escherichia coli [15]): 1
- fold change (FC) (Escherichia coli [16]): 1
- fold change (FC) (Escherichia coli [17]): 2
- fold change (FC) (Escherichia coli [18]): 1
- fold change (FC) (Escherichia coli [19]): 1
- fold change (FC) (Escherichia coli [20]): 1
- fold change (FC) (Escherichia coli [21]): 1
- fold change (FC) (Escherichia coli [22]): 16
- fold change (FC) (Escherichia coli [23]): 4
- fold change (FC) (Escherichia coli [24]): 4
- fold change (FC) (Escherichia coli [25]): 1
- fold change (FC) (Escherichia coli [26]): 4
- fold change (FC) (Escherichia coli [27]): 16
- fold change (FC) (Escherichia coli [28]): 1
- fold change (FC) (Escherichia coli [29]): 1
- fold change (FC) (Escherichia coli [30]): 2
- fold change (FC) (Escherichia coli [31]): 16
- fold change (FC) (Escherichia coli [32]): 1
- fold change (FC) (Escherichia coli [33]): 2

Compound: C[C@H]1COc2c(N3CCN(C)CC3)c(F)cc3c(=O)c(C(=O)O)cn1c23.C[C@H]1COc2c(N3CCN(C)CC3)c(F)cc3c(=O)c(C(=O)O)cn1c23.O [LEVOFLOXACIN]
- fold change (FC) (Escherichia coli [1]): 2
- fold change (FC) (Escherichia coli [2]): 2
- fold change (FC) (Escherichia coli [3]): 2
- fold change (FC) (Escherichia coli [4]): 4
- fold change (FC) (Escherichia coli [5]): 1
- fold change (FC) (Escherichia coli [6]): 2
- fold change (FC) (Escherichia coli [7]): 2
- fold change (FC) (Escherichia coli [8]): 8
- fold change (FC) (Escherichia coli [9]): 2
- fold change (FC) (Escherichia coli [10]): 4
- fold change (FC) (Escherichia coli [11]): 2
- fold change (FC) (Escherichia coli [12]): 4
- fold change (FC) (Escherichia coli [13]): 1
- fold change (FC) (Escherichia coli [14]): 1
- fold change (FC) (Escherichia coli [15]): 4
- fold change (FC) (Escherichia coli [16]): 1
- fold change (FC) (Escherichia coli [17]): 1
- fold change (FC) (Escherichia coli [18]): 2
- fold change (FC) (Escherichia coli [19]): 1
- fold change (FC) (Escherichia coli [20]): 2
- fold change (FC) (Escherichia coli [21]): 2
- fold change (FC) (Escherichia coli [22]): 1
- fold change (FC) (Escherichia coli [23]): 4
- fold change (FC) (Escherichia coli [24]): 2
- fold change (FC) (Escherichia coli [25]): 1
- fold change (FC) (Escherichia coli [26]): 4
- fold change (FC) (Escherichia coli [27]): 4
- fold change (FC) (Escherichia coli [28]): 1
- fold change (FC) (Escherichia coli [29]): 2
- fold change (FC) (Escherichia coli [30]): 2
- fold change (FC) (Escherichia coli [31]): 4
- fold change (FC) (Escherichia coli [32]): 1
- fold change (FC) (Escherichia coli [33]): 1

Compound: CCn1cc(C(=O)O)c(=O)c2cc(F)c(N3CCNCC3)cc21 [NORFLOXACIN]
- fold change (FC) (Escherichia coli [1]): 16
- fold change (FC) (Escherichia coli [2]): 4
- fold change (FC) (Escherichia coli [3]): 16
- fold change (FC) (Escherichia coli [4]): 8
- fold change (FC) (Escherichia coli [5]): 8
- fold change (FC) (Escherichia coli [6]): 16
- fold change (FC) (Escherichia coli [7]): 4
- fold change (FC) (Escherichia coli [8]): 16
- fold change (FC) (Escherichia coli [9]): 8
- fold change (FC) (Escherichia coli [10]): 16
- fold change (FC) (Escherichia coli [11]): 4
- fold change (FC) (Escherichia coli [12]): 8
- fold change (FC) (Escherichia coli [13]): 8
- fold change (FC) (Escherichia coli [14]): 8
- fold change (FC) (Escherichia coli [15]): 16
- fold change (FC) (Escherichia coli [16]): 16
- fold change (FC) (Escherichia coli [17]): 2
- fold change (FC) (Escherichia coli [18]): 4
- fold change (FC) (Escherichia coli [19]): 4
- fold change (FC) (Escherichia coli [20]): 32
- fold change (FC) (Escherichia coli [21]): 32
- fold change (FC) (Escherichia coli [22]): 16
- fold change (FC) (Escherichia coli [23]): 16
- fold change (FC) (Escherichia coli [24]): 2
- fold change (FC) (Escherichia coli [25]): 2
- fold change (FC) (Escherichia coli [26]): 4
- fold change (FC) (Escherichia coli [27]): 16
- fold change (FC) (Escherichia coli [28]): 16
- fold change (FC) (Escherichia coli [29]): 16
- fold change (FC) (Escherichia coli [30]): 16
- fold change (FC) (Escherichia coli [31]): 16
- fold change (FC) (Escherichia coli [32]): 16
- fold change (FC) (Escherichia coli [33]): 2
